Assay results: publication PMC7906907, “Targeting STAT3 by a small molecule suppresses pancreatic cancer progression” (Oncogene, 2021)

Assays:
[1] = target: T1, STAT3^127–722 protein (Homo sapiens, UniProt P40763); test: Surface plasmon resonance (SPR) assay; format: binding
T1 construct: made in house
Experimental: Surface plasmon resonance (SPR) analysis was conducted with a Biacore T200 instrument (GE Healthcare) with CM5 sensor chip (GE Healthcare). To test N4 binding of STAT3^127–722 protein, serially diluted concentrations of N4 were injected into the flow system. Experiments were conducted using phosphate buffered saline (PBS) and the analyte was injected at the flow rate of 30 μL/min. The association time was 60 s and the dissociation time was 30 s. Since N4 was dissolved in PBS containing 5% dimethyl sulfoxide and a solvent correction assay was performed to adjust the results. STAT3^127–722 protein was immobilized on the sensor chip (CM5) using the amine-coupling method according to standard protocols. N4 or Stattic at various concentrations were injected into the flow system. […] The KD values were calculated with the kinetics and affinity analysis option of Biacore T200 plus evaluation software (version 3.0).

[2] = system: Pancreatic cancer cells (CAPAN-2, PANC-1, MIAPACA-2, BXPC-3, HPAC, and CFPAC-1); test: MTS proliferation assay, pancreatic cancer cells; format: cell-based; details: 48 h
Experimental: Fig. 4 N4 suppresses pancreatic cancer cell proliferation and migration and induces apoptosis. A Pancreatic cancer cells (CAPAN-2, PANC-1, MIAPACA-2, BXPC-3, HPAC, and CFPAC-1) and normal cells (HPNE, HAF) were incubated with the indicated concentration of N4 for 48 h. MTS assays were performed to detect the N4-mediated inhibition of cell proliferation. Data are shown as mean ± SD, *P < 0.05, **P < 0.01, ***P < 0.001, ****P < 0.0001, n.s. not significant by one-way ANOVA followed by multiple comparisons. B, C CAPAN-2, PANC-1, and MIAPACA-2 cells were treated with N4 (B) or C188-9 (C) for 7 days. The cells fixed and stained, and colony numbers were calculated. Experiments were carried out in triplicate with identical results obtained. […] Apoptotic cells were analyzed as described in Materials and Methods. […] In F, after 48 h transfection, transfected cells were seeded in 96-well plates, and cells were enumerated at day 1, day 2, and day 4, In G, different cells transfected with different siRNA were treated with the indicated concentrations of N4, and cell viability measured after a 48 h treatment. Data are expressed as mean ± SD, *P < 0.05, ***P < 0.001, n.s. not significant by one-way ANOVA followed by multiple comparisons. […] Data are expressed as mean ± SD, *P < 0.05, ***P < 0.001, n.s. not significant; Student’s t tests were performed. […]

[3] = system: STAT3; test: STAT3-response dual luciferase reporter assay; format: cell-based
Experimental: Fig. 1 N4 inhibits STAT3 dimerization and transcription in vitro. A Purified STAT3 protein was incubated with labeled phosphopeptide, 5-carboxyfluorescein-GpYLPQTV-NH2 for 1 h at 37 °C. FP signals were measured, and the data were analyzed using Graph Pad 7.0 software. B Chemical structure of N4. C Different concentrations of N4 were pre-incubated with recombined STAT3 protein for 1 h, then 10 nM of labeled peptide was added for 1 h. The IC50 was calculated using Graph Pad 7.0. D, E, F STAT3 specific luciferase reporter plasmid was transiently transfected into 293T cells. After 24 h transfection, IL-6 (20 ng/mL), OSM (10 ng/mL), and V-SRC expression plasmid (200 ng) was used to activate STAT3 luciferase activity, N4 was added at the indicated concentrations. Renilla luciferase activities were used as an internal reference (n = 2 per group). The values are expressed as mean ± SD and the bars indicate statistically significant differences (t test), *P < 0.05; **P < 0.01; ***P < 0.001.
Dual luciferase assay was performed as previously described. […] Renilla and firefly luciferase activities were determined by luminometry using the Dual Luciferase Reporter Assay System (Promega). The ratio was calculated.
Supplementary Figure 5. […] The values are expressed as mean ± SD and the bars indicate statistically significant differences (t-test), *P < 0.05; **P < 0.01; ***P < 0.001. […]

T1 sequence (P40763 127-722): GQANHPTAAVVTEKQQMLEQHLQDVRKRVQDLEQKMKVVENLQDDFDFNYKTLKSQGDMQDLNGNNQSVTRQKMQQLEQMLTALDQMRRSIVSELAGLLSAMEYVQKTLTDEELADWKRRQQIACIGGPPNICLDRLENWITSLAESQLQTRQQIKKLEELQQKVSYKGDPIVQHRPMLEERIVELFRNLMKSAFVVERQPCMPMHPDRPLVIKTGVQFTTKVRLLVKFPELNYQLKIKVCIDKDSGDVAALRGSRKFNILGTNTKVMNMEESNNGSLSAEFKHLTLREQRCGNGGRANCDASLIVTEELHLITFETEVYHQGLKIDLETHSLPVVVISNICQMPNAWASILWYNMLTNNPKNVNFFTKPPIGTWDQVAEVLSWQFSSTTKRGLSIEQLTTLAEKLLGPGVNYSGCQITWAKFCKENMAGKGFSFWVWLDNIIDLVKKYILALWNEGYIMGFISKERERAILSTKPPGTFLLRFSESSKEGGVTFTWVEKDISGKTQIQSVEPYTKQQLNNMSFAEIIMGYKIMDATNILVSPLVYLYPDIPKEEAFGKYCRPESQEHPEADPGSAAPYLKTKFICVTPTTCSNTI

## COc1cc2c(cc1C(=O)Nc1cccc3cccnc13)CCC1C(C)(C)C(=O)C(C#N)=C[C@]21C (some centres unmarked) [N4]
[1]; SPR, STAT3^127–722 immobilized on CM5 chip, 25 °C
  Kd: 1040 nM
[1]; in FP and SPR experiments
  improvement of binding affinities to STAT3 than Stattic: approximately tenfold improvement
[2]
  proliferation of pancreatic cancer cells: effectively inhibited
[3]; 293T cells, IL-6, OSM or V-SRC induced
  STAT3-dependent luciferase reporter activity: suppressed
[3]; PANC-1 and BXPC-3 cells, with or without IL-6 stimulation
  STAT3-response luciferase activities: efficiently inhibited
